Source: EPA's ToxValDB 9.5

Columns and labels:
Canidae [1] = conditions: chronic, oral, diet, M/F, Dog Other
Canidae [2] = conditions: chronic, oral, diet, Dog Other
Mus musculus [3] = conditions: repeat dose other; oral
Mus musculus [4] = conditions: uterotrophic; duration: 3 days; injection; intraperitoneal; Active
Oryctolagus sp. [5] = conditions: dermal, New Zealand
Rattus norvegicus [6] = conditions: for LC50 / LD50: acute
Cavia porcellus = conditions: acute, Guinea Pig
Mus musculus [7] = conditions: for LC50: acute
Mus musculus [8] = conditions: short-term, inhalation, M, immunological
Rattus norvegicus [9] = conditions: subchronic; duration: 13 weeks; oral; gavage; M/F; Fischer 344; Deaths + Body Weight Changes: decrease + Hematology: WBC decrease, Lympho decrease + Histopathology: Spleen-B-cell depletion Spleen-…
Oryctolagus sp. [10] = conditions: developmental; duration: 13 days; oral; gavage; M/F; New Zealand; developmental
Homo sapiens = conditions: clinical; duration: 1 days; inhalation; M/F; respiratory
Bird = conditions: oral, diet
Rattus norvegicus [11] = conditions: Hershberger; duration: 10 days; oral; gavage; Sprague-Dawley; inactive + Negative + Negative + neither + negative
[12] = duration: 2 years, reduced body weight gain, increased liver and kidney weight, and rbc cholinesterase inhibition
[13] = reproduction developmental, duration: 21 days
[14] = reproduction developmental, duration: 10 days, oral, gavage, F, Crl:CD(SD)
[15] = reproduction developmental, duration: 28 days, oral, diet
[16] = subchronic, duration: 90 days, oral, diet, Sprague-Dawley
[17] = subchronic, duration: 90 days, oral, diet, B6C3F1
[18] = reproduction developmental, duration: 6 days, inhalation, Crl: CFW(SW)Br, Charles River Laboratories, generation: F1
[19] = reproduction developmental, inhalation, M, CD1
[20] = duration: 1 years, kidney and liver toxicity
[21] = duration: 2 years, kidney and spleen pathology

COP(=O)(OC)O/C(=C/Cl)c1cc(Cl)c(Cl)cc1Cl [Tetrachlorovinphos]
LEL (Canidae [1]; [12]): 50 mg/kg-day | NOEL (Canidae [1]; [12]): 3.13 mg/kg-day | NOEL (Canidae [2]; duration: 2 years, Kidney: Increased weight + Liver: Increased weight): 3.1 mg/kg-day

[Hg+2].[S-2] [Mercury sulfide (HgS)]
NOAEL (Mus musculus [3]): 13.2 mg/kg-day

CC(C)(c1cc(Br)c(O)c(Br)c1)c1cc(Br)c(O)c(Br)c1 [3,3',5,5'-Tetrabromobisphenol A]
LEL (Mus musculus [4]): 20 mg/kg-day | LD50 (Oryctolagus sp. [5]; acute): > 2000 mg/kg | LOAEL (Oryctolagus sp. [5]; [13]): > 2500 mg/kg-day | NOAEL (Oryctolagus sp. [5]; [13]): 2500 mg/kg-day | LC50 (Rattus norvegicus [6]; inhalation): > 28200 mg/m3 | LC50 (Rattus norvegicus [6]; inhalation, Wistar): > 50 µg/mL | LD50 (Rattus norvegicus [6]; oral, gavage, Sprague-Dawley): > 5000 mg/kg | NOAEL (Rattus norvegicus [6]; developmental, duration: 19 days, oral, gavage): 1000 mg/kg-day | LOAEL (Rattus norvegicus [6]; developmental, duration: 19 days, oral, gavage, Wistar): > 2500 mg/kg-day | NOAEL (Rattus norvegicus [6]; developmental, duration: 20 days, oral, Wistar): 2500 mg/kg-day | LOAEL (Rattus norvegicus [6]; [14]): 5000 mg/kg-day | NOAEL (Rattus norvegicus [6]; [14]): 3000 mg/kg-day | LOAEL (Rattus norvegicus [6]; reproduction developmental, duration: 14 days, inhalation): 6 mg/L | LOAEL (Rattus norvegicus [6]; reproduction developmental, duration: 19 days, oral, gavage, F): > 1000 mg/kg-day | NOAEL (Rattus norvegicus [6]; reproduction developmental, duration: 20 days, oral, gavage, F, Sprague-Dawley): 1000 mg/kg-day | LOAEC (Rattus norvegicus [6]; [15]): > 1000 ppm | NOAEL (Rattus norvegicus [6]; [15]): ≥ 1000 ppm | LOAEL (Rattus norvegicus [6]; reproduction developmental, oral, gavage, Sprague-Dawley, generation: F0): 1000 mg/kg-day | LOAEL (Rattus norvegicus [6]; [16]): > 100 mg/kg-day | NOAEL (Rattus norvegicus [6]; [16]): > 100 mg/kg-day | NOAEL (Rattus norvegicus [6]; subchronic, duration: 90 days, oral, gavage, Sprague-Dawley): 1000 mg/kg-day | LC50 (Cavia porcellus; inhalation): > 50 µg/mL | LC50 (Mus musculus [7]; inhalation, NMDI): > 50 µg/mL | LOAEL (Mus musculus [7]; [17]): 3070 mg/kg-day | NOAEL (Mus musculus [7]; [17]): 965 mg/kg-day

c1ccccc1 [Benzene]
LOAEL (Mus musculus [8]; duration: 6 days, whole body, C57BL/6): 32.6 mg/m3 | LOAEL (Mus musculus [8]; duration: 20 days, C57Bl/6): 31.9 mg/m3 | NOEL (Rattus norvegicus [9]): < 25 mg/kg-day | LOAEL (Mus musculus [3]): 264 mg/kg-day | NOAEL (Mus musculus [3]): 26.4 mg/kg-day | LC50 (Rattus norvegicus [6]; inhalation, Sprague-Dawley): 43800 mg/m3 | LOAEL (Mus musculus [7]; repeat dose other, inhalation, CD1): 31.9 mg/m3 | LOAEL (Mus musculus [7]; [18]): 63.9 mg/m3 | NOAEL (Mus musculus [7]; [18]): 31.9 mg/m3 | NOAEL (Mus musculus [7]; reproduction developmental, duration: 6 days, inhalation, F, Crl: CFW(SW)Br, Charles River Laboratories): 63.9 mg/m3 | LOAEL (Mus musculus [7]; reproduction developmental, inhalation, F, CD1): 958 mg/m3 | LOAEL (Mus musculus [7]; [19]): 958 mg/m3 | NOAEL (Mus musculus [7]; [19]): 95.8 mg/m3

CCCCOCCOCCOCOCCOCCOCCCC [Bis(butoxyethoxyethoxy)methane]
LC50 (Rattus norvegicus [6]; Inhalation, Wistar): > 200 µg/mL | LD50 (Rattus norvegicus [6]; dermal, occlusive, Sprague-Dawley): > 2000 mg/kg | LD50 (Rattus norvegicus [6]; oral, Sprague-Dawley): > 2000 mg/kg | NOAEL (Rattus norvegicus [6]; developmental, duration: 9 weeks, oral, gavage, Sprague-Dawley): 100 mg/kg-day | NOAEL (Rattus norvegicus [6]; reproduction developmental, duration: 9 weeks, oral, gavage, F, Sprague-Dawley): 100 mg/kg-day | NOAEL (Rattus norvegicus [6]; reproduction developmental, duration: 9 weeks, oral, gavage, Sprague-Dawley): 100 mg/kg-day | NOAEL (Rattus norvegicus [6]; reproduction developmental, duration: 9 weeks, oral, gavage, Sprague-Dawley, generation: F0): 100 mg/kg-day | NOAEL (Rattus norvegicus [6]; reproduction developmental, duration: 9 weeks, oral, gavage, Sprague-Dawley, generation: F1): 100 mg/kg-day | LC50 (Cavia porcellus; Inhalation): > 200 µg/mL | LC50 (Mus musculus [7]; Inhalation, Swiss-Webster): > 200 µg/mL

Cc1cc(Cl)ccc1OCC(=O)O [2-(4-Chloro-2-methylphenoxy)acetic acid]
LEL (Canidae [1]; [20]): 0.75 mg/kg-day | NOEL (Canidae [1]; [20]): 0.15 mg/kg-day | NOEL (Canidae [2]; duration: 52 weeks, Kidney: Effects + Liver: Effects): 0.15 mg/kg-day

[B] [Boron]
NOAEL (Oryctolagus sp. [10]): 22 mg/kg-day | NOAEL (Homo sapiens): 0.8 mg/m3

Cc1cc(C(C)(C)c2ccc(O)c(C)c2)ccc1O [3,3'-Dimethylbisphenol A]
NOEL (Bird; short-term, duration: 1 month, M, Chicken, body weight): 0.3% | LOEL (Bird; short-term, duration: 1 month, M, Chicken, mortality): 0.3% | NOEL (Bird; subchronic, duration: 12 week, M/F, White leghorn chicken, mortality): 0.3% | LOEL (Bird; subchronic, duration: 12 week, M, White leghorn chicken, body weight): 0.3% | NOEL (Bird; subchronic, duration: 12 week, M, White leghorn chicken, body weight + mortality): 0.3%

CNC(=O)ON=C(C)SC [Methomyl]
LEL (Canidae [1]; [21]): 10 mg/kg-day | NOEL (Canidae [1]; [21]): 2.5 mg/kg-day | NOEL (Canidae [2]; duration: 24 months, Kidney: Lesions): 2.5 mg/kg-day | NOEL (Rattus norvegicus [11]): 1 mg/kg-day
